Data: patent US20260083723A1, “THERAPEUTIC AGENT OR PROPHYLACTIC AGENT FOR AMYOTROPHIC LATERAL SCLEROSIS” (Toray Industries, Inc., priority 2022, published 2026)
Where a name gives a salt, the structure may show the parent alone.

Experiment: In vitro radical scavenging action (DPPH method)
Details: 1.2-100 μmol/L, 30 minutes at room temperature, absorbance at 517 nm
Experimental: The radical scavenging action of a test compound can be evaluated using an in vitro test and, for example, by a method (Antioxidants, 2019, vol. 258) using a stable radical, 1,1-diphenyl-2-picrylhydrazil (DPPH).
Radical scavenging action was evaluated using the DPPH method in the compound of Comparative Example 1, which is a tetrahydroquinoxaline derivative, and in the tetrahydroquinoline derivative (I) or a pharmaceutically acceptable salt thereof. The DPPH method was performed using an antioxidant capacity measurement kit (Dojindo Laboratories).
A test compound was dissolved in DMSO, and the resulting solution was then mixed with an assay buffer and a DPPH solution, which are included in the kit, to a total volume of 200 μL to obtain a final concentration of 10% DMSO, and the reaction was allowed to proceed. Wells added with […] ferrostatin-1, a radical scavenger, were grouped as “control,” and wells not added with test compound were grouped as “background”. The test compound was serially diluted 3-fold starting from a maximum concentration of 100 μmol/L, and the diluted test compound (1.2, 3.7, 11.1, 33.3, or 100 μmol/L) was added and allowed to react at room temperature. Thirty minutes after the reaction, the absorbance at 517 nm was measured, and the average absorbance value was calculated (N=2). The radical scavenging action of the test compound (hereinafter referred to as radical scavenging rate, %) was calculated based on Equation 2. The EC50 value of the test compound was calculated from the radical scavenging rate.
A note “no detection of radical scavenging action (N.D.),” is given to compounds with a EC50 of >100 μmol/L.

EC50 [µM] | SMILES
> 100 | FC(F)(F)Oc1ccc2c(c1)CCC(c1ccccc1)N2 (stereo not shown) [Example 81, 2-phenyl-6-(trifluoromethoxy)-1,2,3,4-tetrahydroquinoline]
> 100 | Fc1ccc2c(c1)CCC(c1ccccc1)N2 (stereo not shown) [Example 82, 6-fluoro-2-phenyl-1,2,3,4-tetrahydroquinoline]
> 100 | Clc1ccc2c(c1)CCC(c1ccccc1)N2 (stereo not shown) [Example 83, 6-chloro-2-phenyl-1,2,3,4-tetrahydroquinoline]
> 100 | Fc1cc2c(cc1F)NC(c1ccccc1)CC2 (stereo not shown) [Example 85, 6,7-difluoro-2-phenyl-1,2,3,4-tetrahydroquinoline]
> 100 | Cc1ccc2c(c1)CCC(c1ccc(C(N)=O)cc1)N2 (stereo not shown) [Example 99, 4-(6-methyl-1,2,3,4-tetrahydroquinolin-2-yl)benzamide]
> 100 | Cc1ccc2c(c1)NC(c1ccc(S(N)(=O)=O)cc1)CC2 (stereo not shown) [Example 105, 4-(7-methyl-1,2,3,4-tetrahydroquinolin-2-yl)benzenesulfonamide]
> 100 | Cc1ccc2c(c1)NC(c1ccc(C(N)=O)cc1)CC2 (stereo not shown) [Example 106, 4-(7-methyl-1,2,3,4-tetrahydroquinolin-2-yl)benzamide]
> 100 | NS(=O)(=O)c1ccc(C2CCc3cc(F)ccc3N2)cc1 (stereo not shown) [Example 107, 4-(6-fluoro-1,2,3,4-tetrahydroquinolin-2-yl)benzenesulfonamide]
> 100 | NS(=O)(=O)c1ccc(C2CCc3cc(F)ccc3N2)cc1 (stereo not shown) [Example 108, 4-(6-fluoro-1,2,3,4-tetrahydroquinolin-2-yl)benzenesulfonamide]
> 100 | NS(=O)(=O)c1ccc(C2CCc3cc(F)ccc3N2)cc1 (stereo not shown) [Example 109, 4-(6-fluoro-1,2,3,4-tetrahydroquinolin-2-yl)benzenesulfonamide]
> 100 | Cc1cccc2c1CCC(c1ccc(S(N)(=O)=O)cc1)N2 (stereo not shown) [Example 112, 4-(5-methyl-1,2,3,4-tetrahydroquinolin-2-yl)benzenesulfonamide]
> 100 | NS(=O)(=O)c1ccc(C2CCc3cc(Cl)ccc3N2)cc1 (stereo not shown) [Example 115, 4-(6-chloro-1,2,3,4-tetrahydroquinolin-2-yl)benzenesulfonamide]
> 100 | NS(=O)(=O)c1ccc(C2CCc3cc(Cl)ccc3N2)cc1 (stereo not shown) [Example 116, 4-(6-chloro-1,2,3,4-tetrahydroquinolin-2-yl)benzenesulfonamide]
> 100 | NS(=O)(=O)c1ccc(C2CCc3cc(Cl)ccc3N2)cc1 (stereo not shown) [Example 117, 4-(6-chloro-1,2,3,4-tetrahydroquinolin-2-yl)benzenesulfonamide]
> 100 | NS(=O)(=O)c1ccc(C2CCc3ccc(F)cc3N2)cc1 (stereo not shown) [Example 118, 4-(7-fluoro-1,2,3,4-tetrahydroquinolin-2-yl)benzenesulfonamide]
> 100 | Cc1ccc2c(c1)CCC(c1ccc(S(N)(=O)=O)cc1)N2 (stereo not shown) [Example 119, 4-(6-methyl-1,2,3,4-tetrahydroquinolin-2-yl)benzenesulfonamide]
> 100 | Cc1ccc2c(c1)CCC(c1ccc(S(N)(=O)=O)cc1)N2 (stereo not shown) [Example 120, 4-(6-methyl-1,2,3,4-tetrahydroquinolin-2-yl)benzenesulfonamide]
> 100 | NC(=O)c1ccc(C2CCc3cc(Cl)ccc3N2)cc1 (stereo not shown) [Example 121, 4-(6-chloro-1,2,3,4-tetrahydroquinolin-2-yl)benzamide]
> 100 | NC(=O)c1ccc(C2CCc3cc(Cl)ccc3N2)cc1 (stereo not shown) [Example 122, 4-(6-chloro-1,2,3,4-tetrahydroquinolin-2-yl)benzamide]

EC50 [µM] | SMILES
> 100 | NC(=O)c1ccc(C2CCc3cc(Cl)ccc3N2)cc1 (stereo not shown) [Example 131, 4-(6-chloro-1,2,3,4-tetrahydroquinolin-2-yl)benzamide]
> 100 | NC(=O)c1ccc(C2CCc3cc(F)ccc3N2)cc1 (stereo not shown) [Example 132, 4-(6-fluoro-1,2,3,4-tetrahydroquinolin-2-yl)benzamide]
> 100 | NS(=O)(=O)c1ccc(C2CCc3c(Cl)cccc3N2)cc1 (stereo not shown) [Example 134, 4-(5-chloro-1,2,3,4-tetrahydroquinolin-2-yl)benzenesulfonamide]
> 100 | NS(=O)(=O)c1ccc(C2CCc3c(F)cccc3N2)cc1 (stereo not shown) [Example 135, 4-(5-fluoro-1,2,3,4-tetrahydroquinolin-2-yl)benzenesulfonamide]
> 100 | CS(=O)(=O)Nc1ccc(C2CCc3ccccc3N2)cc1 (stereo not shown) [Example 136, N-(4-(1,2,3,4-tetrahydroquinolin-2-yl)phenyl)methanesulfonamide]
> 100 | NC(=O)c1ccc(C2CCc3c(F)cccc3N2)cc1 (stereo not shown) [Example 137, 4-(5-fluoro-1,2,3,4-tetrahydroquinolin-2-yl)benzamide]
> 100 | NC(=O)c1ccc(C2CCc3c(Cl)cccc3N2)cc1 (stereo not shown) [Example 138, 4-(5-chloro-1,2,3,4-tetrahydroquinolin-2-yl)benzamide]
> 100 | O=C(Cc1ccc2c(c1)CCC(c1ccccc1)N2)N1CC(O)C1 (stereo not shown) [Example 143, 1-(3-hydroxyazetidin-1-yl)-2-(2-phenyl-1,2,3,4-tetrahydroquinolin-6-yl)ethan-1-one hydrochloride]
> 100 | O=C(Cc1ccc2c(c1)CCC(c1ccccc1)N2)N1CC(O)C1 (stereo not shown) [Example 144, 1-(3-hydroxyazetidin-1-yl)-2-(2-phenyl-1,2,3,4-tetrahydroquinolin-6-yl)ethan-1-one hydrochloride]
> 100 | O=C(Cc1ccc2c(c1)CCC(c1ccccc1)N2)N1CCOCC1 (stereo not shown) [Example 145, 1-morpholino-2-(2-phenyl-1,2,3,4-tetrahydroquinolin-6-yl)ethan-1-one]
> 100 | CC1(C)CN(C(=O)Cc2ccc3c(c2)CCC(c2ccccc2)N3)C1 (stereo not shown) [Example 146, 1-(3,3-dimethylazetidin-1-yl)-2-(2-phenyl-1,2,3,4-tetrahydroquinolin-6-yl)ethan-1-one]
> 100 | COC1CN(C(=O)Cc2ccc3c(c2)CCC(c2ccccc2)N3)C1 (stereo not shown) [Example 147, 1-(3-methoxyazetidin-1-yl)-2-(2-phenyl-1,2,3,4-tetrahydroquinolin-6-yl)ethan-1-one]
> 100 | O=C(Cc1ccc2c(c1)CCC(c1ccccc1)N2)NC1COC1 (stereo not shown) [Example 148, N-(oxetan-3-yl)-2-(2-phenyl-1,2,3,4-tetrahydroquinolin-6-yl)acetamide]
> 100 | O=C(Cc1ccc2c(c1)CCC(c1ccccc1)N2)N1CC(F)(F)C1 (stereo not shown) [Example 149, 1-(3,3-difluoroazetidin-1-yl)-2-(2-phenyl-1,2,3,4-tetrahydroquinolin-6-yl)ethan-1-one]
> 100 | CN(CCO)C(=O)Cc1ccc2c(c1)CCC(c1ccccc1)N2 (stereo not shown) [Example 150, N-(2-hydroxyethyl)-N-methyl-2-(2-phenyl-1,2,3,4-tetrahydroquinolin-6-yl)acetamide]
> 100 | O=C(Cc1ccc2c(c1)CCC(c1ccccc1)N2)N1CCC1 (stereo not shown) [Example 151, 1-(azetidin-1-yl)-2-(2-phenyl-1,2,3,4-tetrahydroquinolin-6-yl)ethan-1-one]
> 100 | O=C(Cc1ccc2c(c1)CCC(c1ccccc1)N2)NC1CC1 (stereo not shown) [Example 152, N-cyclopropyl-2-(2-phenyl-1,2,3,4-tetrahydroquinolin-6-yl)acetamide]
> 100 | O=C(Cc1ccc2c(c1)CCC(c1ccccc1)N2)NC1CCC1 (stereo not shown) [Example 155, N-cyclobutyl-2-(2-phenyl-1,2,3,4-tetrahydroquinolin-6-yl)acetamide]
